Reference: US20250179057A1, “MEK IMMUNE ONCOLOGY INHIBITORS AND THERAPEUTIC USES THEREOF” (Immuneering Corporation, priority 2022, published 2025)
Structures can show the parent of a compound that is named as a salt. Where two headings read alike, the source gives them in different places.

Columns and labels:
[1] = Mouse pharmacokinetics (oral cassette dosing), plasma; assay type: in vivo; conditions: BALB/c immunocompetent mice, 5 mg/kg p.o.
Description: Female mice (BALC/c) received a single dose (3 mice/treatment) of vehicle (10% 1N HCl:90% [20% […]) and at 0.5, 1, 2, 4, 8, 12 and 24-hour post dose humanely euthanized.
Blood was obtained through cardiac puncture into K+EDTA tubes, mixed by inversion and centrifuged to obtain the plasma. Blood will be kept on ice or at approximately 4° C. prior. Centrifugation will take place within 30 minutes of blood collection affording plasma samples. Plasma samples will be frozen as soon as possible after centrifugation and stored at −80° C. until analysis. All samples will be analysed by means of LC-MS/MS. Method development for bioanalysis will be performed by pharmacokinetics Department of Crown Bioscience (Taicang) Inc. using LC-MS/MS analysis (using Waters HSS T3 2.1×50 mm (1.8 um) LC column, and an API-4000 Electrospray MS unit). The results of a kinetic solubility (free base) study are represented in Table 19.

CYP2B6 = biological target: T1, CYP2B6 (Homo sapiens, UniProt P20813); assay: CYP450 panel inhibition in human liver microsomes, 2B6 (bupropion); conditions: 10 μM, substrate bupropion
T1 sequence (P20813 1-491): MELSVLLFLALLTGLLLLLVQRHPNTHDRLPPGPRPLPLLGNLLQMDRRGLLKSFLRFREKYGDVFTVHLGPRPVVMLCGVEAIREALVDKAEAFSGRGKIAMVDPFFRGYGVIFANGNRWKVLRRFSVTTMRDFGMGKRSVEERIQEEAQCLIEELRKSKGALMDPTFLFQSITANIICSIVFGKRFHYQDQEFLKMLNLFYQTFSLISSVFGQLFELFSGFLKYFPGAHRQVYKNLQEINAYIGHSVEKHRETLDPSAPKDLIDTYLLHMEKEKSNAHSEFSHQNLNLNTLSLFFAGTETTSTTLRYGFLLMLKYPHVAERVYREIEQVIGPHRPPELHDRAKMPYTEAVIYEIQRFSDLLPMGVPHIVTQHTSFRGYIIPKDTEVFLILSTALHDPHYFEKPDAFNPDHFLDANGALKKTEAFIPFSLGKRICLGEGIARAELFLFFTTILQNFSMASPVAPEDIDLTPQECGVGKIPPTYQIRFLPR

CYP2D6 = CYP2D6 (Homo sapiens, UniProt P10635); assay: CYP450 panel inhibition in human liver microsomes, 2D6 (dextromethorphan); conditions: 10 μM, substrate dextromethorphan
Chain of CYP2D6 (P10635 whole entry): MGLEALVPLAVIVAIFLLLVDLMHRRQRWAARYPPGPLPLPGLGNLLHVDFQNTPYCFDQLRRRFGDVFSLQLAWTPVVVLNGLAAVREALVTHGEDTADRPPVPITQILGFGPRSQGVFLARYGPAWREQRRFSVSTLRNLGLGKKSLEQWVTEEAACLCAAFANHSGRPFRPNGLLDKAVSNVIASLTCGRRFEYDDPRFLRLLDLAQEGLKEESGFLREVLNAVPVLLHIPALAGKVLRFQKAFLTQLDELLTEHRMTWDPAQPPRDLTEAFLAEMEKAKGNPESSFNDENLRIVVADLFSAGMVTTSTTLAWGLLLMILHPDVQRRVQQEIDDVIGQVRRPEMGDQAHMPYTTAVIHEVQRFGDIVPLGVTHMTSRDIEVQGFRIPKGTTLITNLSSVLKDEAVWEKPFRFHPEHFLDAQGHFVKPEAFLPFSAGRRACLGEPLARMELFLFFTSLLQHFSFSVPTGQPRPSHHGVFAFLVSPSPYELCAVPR

hERG = hERG (Homo sapiens, UniProt Q12809); assay: in vitro
Chain of hERG (Q12809 whole entry): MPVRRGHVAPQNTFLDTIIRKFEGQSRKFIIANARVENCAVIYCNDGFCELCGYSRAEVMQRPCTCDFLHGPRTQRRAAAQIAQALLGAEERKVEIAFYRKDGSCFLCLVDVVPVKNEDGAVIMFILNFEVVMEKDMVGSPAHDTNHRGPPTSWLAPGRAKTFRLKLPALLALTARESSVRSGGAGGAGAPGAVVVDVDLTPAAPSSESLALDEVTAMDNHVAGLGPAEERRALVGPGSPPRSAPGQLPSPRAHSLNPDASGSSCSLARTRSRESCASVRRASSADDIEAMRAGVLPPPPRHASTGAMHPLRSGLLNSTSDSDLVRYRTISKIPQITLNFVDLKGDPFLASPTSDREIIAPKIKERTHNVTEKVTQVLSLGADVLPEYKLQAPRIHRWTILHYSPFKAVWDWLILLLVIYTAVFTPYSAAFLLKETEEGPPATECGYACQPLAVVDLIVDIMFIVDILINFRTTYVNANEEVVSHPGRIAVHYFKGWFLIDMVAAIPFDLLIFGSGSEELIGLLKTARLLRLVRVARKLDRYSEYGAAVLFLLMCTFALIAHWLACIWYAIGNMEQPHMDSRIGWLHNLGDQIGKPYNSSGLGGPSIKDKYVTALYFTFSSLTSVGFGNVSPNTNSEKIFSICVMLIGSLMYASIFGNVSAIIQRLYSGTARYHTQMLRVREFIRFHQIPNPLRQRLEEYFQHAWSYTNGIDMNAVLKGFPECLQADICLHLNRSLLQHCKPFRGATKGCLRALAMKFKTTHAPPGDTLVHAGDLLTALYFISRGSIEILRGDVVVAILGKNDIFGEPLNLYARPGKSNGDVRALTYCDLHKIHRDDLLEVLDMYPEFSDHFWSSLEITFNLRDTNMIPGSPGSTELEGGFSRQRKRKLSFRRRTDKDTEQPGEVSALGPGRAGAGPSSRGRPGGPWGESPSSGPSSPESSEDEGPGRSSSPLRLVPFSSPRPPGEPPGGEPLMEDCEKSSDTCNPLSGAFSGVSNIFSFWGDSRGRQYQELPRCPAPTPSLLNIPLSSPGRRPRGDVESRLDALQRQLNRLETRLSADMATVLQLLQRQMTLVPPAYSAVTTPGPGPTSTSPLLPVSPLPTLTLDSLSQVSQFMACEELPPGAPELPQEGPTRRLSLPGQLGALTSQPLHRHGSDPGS
Description: Materials and Methods: CHO cells (transformed with adenovirus 5 DNA; Stably transfected with full length hERG cDNA) were cultured in Ham's F-12 supplemented with 10% fetal bovine serum, 100 U/mL penicillin G sodium, 100 μg/mL streptomycin sulfate and 400 μg/mL Zeocin. Before testing, cells in culture dishes were rinsed with Hank's Balanced Salt Solution, detached with accutase.
HEPES-buffered intracellular solution (Charles River proprietary) for whole cell recordings was loaded into the intracellular compartment of the SP384PE. Extracellular buffer (HB-PS) and Cell suspension (in HB-PS) were pipetted into the extracellular compartment of the SP384PE chip. After establishment of a whole-cell configuration, membrane currents were recorded using patch clamp amplifier in the SP384PE system.
Test article (TA) concentrations (eight (8) concentrations of each test article were evaluated) were applied to naïve cells (n=4, where n=replicates/concentration). Each application consisted of addition of 40 μL of 2× concentrated test article solution to the total 80 μL of final volume of the extracellular well of the SP384PE chip. Duration of exposure to each compound concentration was five (5) minutes.
hERG current was measured using stimulus voltage patterns with fixed amplitudes: activation pre-pulse (TP1) to +40 mV for 2 s and test pulse (TP2) to −40 mV for 2 s from a holding potential of −80 mV. hERG current was measured as the outward peak current at TP2 (tail current). The stimulation was repeated with 0.1 Hz frequency during 2 min as baseline and 5 min after TA application.
Data acquisition and analyses were performed using the SP384PE system operation software. The decrease in current amplitude after TA application was used to calculate the percent block relative to control.
Tonic Block effect was calculated as:
[formula] • where ITP2, baseline and ITP2, TA were the outward peak K^+ currents elicited by the TP2 before application and 5 min after application of a test article, respectively.
The data were corrected for run-down:
[formula] • where % VC and % PC were the mean values of the current block with the vehicle and positive controls, respectively.
Concentration-response data were fitted to an equation of the following form:
[formula] • where [Test] was the concentration of test article, IC50 was the concentration of the test article producing half-maximal block, N was the Hill coefficient, % VC was the mean current block at the vehicle control and % Block was the percentage of ion channel current inhibited at each concentration of a test article. Nonlinear least squares fits were solved with the XLfit add-in for Excel (Microsoft, Redmond, WA).
In this study, hERG Ion channel block of IC50 values were determined. […] In brief, CHO cells were cultured in Ham's F-12 supplemented with 10% fetal bovine serum, 100 U/mL penicillin G sodium, 100 μg/mL streptomycin sulfate and 400 μg/mL Zeocin. Before testing, cells in culture dishes were rinsed with Hank's Balanced Salt Solution, detached with accutase. […] Test article (TA) concentrations were applied to naïve cells (n=4, where n=replicates/concentration). Each application consisted of addition of 40 μL of 2× concentrated test article solution to the total 80 μL of final volume of the extracellular well of the SP384PE chip. Duration of exposure to each compound concentration was five (5) minutes. hERG current was measured using stimulus voltage patterns with fixed amplitudes: activation pre-pulse (TP1) to +40 mV for 2 s and test pulse (TP2) to −40 mV for 2 s from a holding potential of −80 mV. hERG current was measured as the outward peak current at TP2 (tail current). The stimulation was repeated with 0.1 Hz frequency during 2 min as baseline and 5 min after TA application. Data acquisition and analyses were performed using the SP384PE system operation software.

[2] = Hepatocyte stability, beagle dog; assay type: in vitro ADME; conditions: 0.5 million cells/ml; for half-life at 2 μM: beagle dog hepatocytes; for CLint scaled at 2 μM: beagle, dog, hepatocytes
Description: In this study, human, cynomolgus monkey, beagle dog, wistar hannover rat, and balb/c mouse hepatocyle stability was determined.

[3] = Caco-2 bidirectional permeability (absorption & efflux); conditions: human
[4] = read-out: IC50 (μM), hERG ion channel block, Example 46, 5 min exposure per concentration
[5] = female, mouse, read-out: AUC0-t
[6] = read-out: CLint (L/hr/kg) (converted)

| Compound | CYP-2B6 (Bupropion) mean percentage CYP inhibition (CYP2B6) [%] | CYP-2D6 (Dextromethorphan) mean percentage CYP inhibition (CYP2D6) [%] | IC50 (hERG) [µM] | AUC(0-t) [1, 5] [ng·h/mL] | Cmax ([1]; female, mouse, read-out: Cmax) [ng/mL] | Tmax ([1]; female, mouse, read-out: Tmax) [min] | half-life at 2 μM [2] [min] | CLint scaled at 2 μM [2, 6] [L/h/kg] | CLint scaled at 2 μM ([2]; read-out: CLint (mL/min/kg)) [L/h/kg] | Papp A→B at 2 h, 10 μM [3] [×10⁻⁶ cm/s] | Papp B→A at 2 h, 10 μM [3] [×10⁻⁶ cm/s] | efflux ratio at 2 h, 10 μM [3] | other results |
| --- | --- | --- | --- | --- | --- | --- | --- | --- | --- | --- | --- | --- | --- |
| CNS(=O)(=O)Nc1cccc(Cc2c(CN(C)C)c3cc(F)c(OC(=O)N(C)C)cc3oc2=O)c1F [Compound 25] | 16.0 | 5.7 | – | – | – | – | – | – | – | – | – | – | AUC0-∞ [1]: 1426 ng·h/mL; AUC(0-t) [1]: 1336 ng·h/mL; Cmax [1]: 1037 ng/mL; T1/2 [1]: 66 min; Tmax [1]: 4.98 min |
| CCS(=O)(=O)Nc1cccc(Cc2c(CN(C)C)c3ccc(OC(=O)N(C)C)cc3oc2=O)c1F [Compound 120] | 13.4 | −1.9 | – | – | – | – | – | – | – | – | – | – | AUC0-∞ [1]: 673.2 ng·h/mL; AUC(0-t) [1]: 669.3 ng·h/mL; Cmax [1]: 1422.7 ng/mL; T1/2 [1]: 18 min; Tmax [1]: 4.98 min |
| CNS(=O)(=O)Nc1nccc(Cc2c(CN(C)C)c3ccc(OC(=O)N(C)C)cc3oc2=O)c1F [Compound 124] | 25.5 | 10.8 | – | – | – | – | – | – | – | – | – | – | IC50 (hERG; [4]): 4.2 µM |
| CNS(=O)(=O)Nc1cccc(Cc2c(CN3CCNCC3)c3cc(F)c(OC(=O)N(C)C)cc3oc2=O)c1F [Compound 134] | 10.3 | 0.5 | – | – | – | – | – | – | – | – | – | – | – |
| CCCS(=O)(=O)Nc1cccc(Cc2c(CN3CCNCC3)c3cc(Cl)c(OC(=O)N(C)C)cc3oc2=O)c1F [Compound 167] | 19.8 | 10.1 | – | – | – | – | – | – | – | – | – | – | IC50 (hERG; [4]): 1.5 µM |
| CCN(C)Cc1c(Cc2cccc(NS(=O)(=O)NC)c2F)c(=O)oc2cc(OC(=O)N(C)C)c(F)cc12 [Compound 238] | – | – | 19.4 | 416 | 857 | 4.98 | 71.2 | 6.28 | 6.3 | 14.2 | 13.5 | 0.956 | AUC(0-inf) ([1]; female, mouse): 434 ng·h/mL; half-life ([1]; female, mouse): 60 min |
| CCN(C)Cc1c(Cc2cccc(NS(=O)(=O)NC)c2Cl)c(=O)oc2cc(OC(=O)N(C)C)ccc12 [Compound 245, 3-(2-chloro-3-((N-methylsulfamoyl)amino)benzyl)-4-((ethyl(methyl)amino)methyl)-2-oxo-2H-chromen-7-yl dimethylcarbamate] | – | – | 16.1 | 154 | 384 | 4.98 | 57.2 | 7.81 | 7.8 | 11.9 | 6.87 | 0.578 | – |
| CNS(=O)(=O)Nc1cccc(Cc2c(CN3CCNCC3)c3ccc(OC(=O)N(C)C)cc3oc2=O)c1Cl [Compound 246, 3-(2-chloro-3-((N-methylsulfamoyl)amino)benzyl)-2-oxo-4-(piperazin-1-ylmethyl)-2H-chromen-7-yl dimethylcarbamate hydrochloride] | – | – | > 30 | – | – | – | 364 | 1.23 | 1.23 | 4.16 | 6.99 | 1.68 | – |
| CNS(=O)(=O)Nc1cccc(Cc2c(CN3CCNCC3)c3cc(Cl)c(OC(=O)N(C)C)cc3oc2=O)c1Cl [Compound 256, 6-chloro-3-(2-chloro-3-((N-methylsulfamoyl)amino)benzyl)-2-oxo-4-(piperazin-1-ylmethyl)-2H-chromen-7-yl dimethylcarbamate hydrochloride] | – | – | 21.6 | 19.5 | 8.3 | 30 | 179 | 2.5 | 2.5 | 3.59 | 13.4 | 3.73 | AUC(0-inf) ([1]; female, mouse): 28.3 ng·h/mL |
| CCS(=O)(=O)Nc1cccc(Cc2c(CN3CCNCC3)c3cc(Cl)c(OC(=O)N(C)C)cc3oc2=O)c1Cl [Compound 257, 6-chloro-3-(2-chloro-3-(ethylsulfonamido)benzyl)-2-oxo-4-(piperazin-1-ylmethyl)-2H-chromen-7-yl dimethylcarbamate hydrochloride] | – | – | 8.4 | 103 | 20.3 | 240 | 113 | 3.96 | 3.97 | 4.08 | 22.1 | 5.41 | – |
| CNS(=O)(=O)Nc1cccc(Cc2c(CN(C)C)c3ccc(OC(=O)N(C)C)cc3oc2=O)c1Cl [Compound 274, 3-(2-chloro-3-((N-methylsulfamoyl)amino)benzyl)-4-((dimethylamino)methyl)-2-oxo-2H-chromen-7-yl dimethylcarbamate] | – | – | > 30 | 392 | 796 | 4.98 | 127 | 3.52 | 3.52 | 16.8 | 8.95 | 0.533 | AUC(0-inf) ([1]; female, mouse): 396 ng·h/mL; half-life ([1]; female, mouse): 18 min |
| Cn1cnc2c(F)c(Nc3ccc(Br)cc3Cl)c(C(=O)NOCCO)cc21 [Reference-1, Selumetinib] | – | – | – | – | – | – | – | – | – | – | – | – | IC50 at 5 min (hERG; human): > 30 µM |
